Patent US5075311A, “HMG-CoA reductase inhibiting substituted pryido (2,3-d) pyrimidines” (Bayer Aktiengesellschaft, priority 1989, dated 1991)

Tested on: HMG-CoA reductase (3-hydroxy-3-methyl-glutaryl-coenzyme A reductase)
Experiment: HMG-CoA reductase enzyme activity determination (modified from G. C. Ness et al.), relative in vitro activity versus mevinolin
Assay type: biochemical, rat (male Rico rats, liver)
Settings: from IC50 values, IC50 of reference mevinolin set at 1; 20 min preincubation at 37° C., 60 min incubation
Procedure: The enzyme activity determination was carried out as modified by G. C. Ness et al., Archives of Biochemistry and Biphysics 197, 493-499 [1979]. Male Rico rats (body weight 300-400 g) were treated for 11 days with altromin powdered feed to which 40 g of cholestyramine/kg of feed had been added. After description, the livers were removed from the animals and placed on ice. The livers were comminuted and homogenized 3 times in 3 volumes of 0.1 m sucrose, 0.05 m KCl, 0.04 m Kx Hy phosphate, 0.03 m ethylenediaminetetraacetic acid, 0.002 m dithiothreitol [SPE] buffer pH 7.2 in a Potter-Elvejem homogenizer. The mixture was then centrifuged at 15,000 g for 15 minutes and the sediment was discarded. […]
After incubating for 60 minutes at 37° C., the batch was centrifuged and 600 μl of the supernatant was applied to a 0.7×4 cm column packed with a 5-chloride 100-200 mesh (anion exchanger). The column was subsequently washed with 2 ml of distilled water and 3 ml of Aquasol were added to runnings plus washing water and counted in an LKB scintillation counter. IC50 values were determined by intrapolation by plotting the percentage inhibition against the concentration of the compound in the test. In order to determine the relative inhibitory potency, the IC50 value of the reference substance mevinolin was set at 1 and compared with the simultaneously determined IC50 value of the test compound.

`COC(=O)C[C@H](O)C[C@H](O)/C=C/c1c(C(C)C)nc2c(c1-c1ccc(F)cc1)c(=O)[nH]c(=O)n2C` (relative stereo) [Example 16, Methyl erythro-(E)-7-[5-(4-fluorophenyl)-7-isopropyl-1-methyl-2,4-dioxo-1,2,3,4-tetrahydro-pyrido(2,3-d)pyrimidin-6-yl]-3,5-dihydroxy-hept-6-enoate] was tested, and the “relative activity (mevinolin = 1)” value was 6.

For `CCCCn1c(=O)[nH]c(=O)c2c(-c3ccc(F)cc3)c(/C=C/[C@@H](O)C[C@@H](O)CC(=O)OC)c(C(C)C)nc21` (relative stereo) [Example 8, Methyl erythro-(E)-7-[1-butyl-5-(4-fluorophenyl)-7-isopropyl-2,4-dioxo-1,2,3,4-terahydro-pyrido(2,3-d)pyrimidin-6-yl]-3,5-dihydroxy-hept-6-enoate], the “relative activity (mevinolin = 1)” value was 2.
